This note sets out measurements from patent US20220409619A1, “INHIBITORS OF HUMAN IMMUNODEFICIENCY VIRUS REPLICATION” (VIIV HEALTHCARE UK (No. 5) LIMITED, priority 2019, published 2022).

pEC50: −log10 of the molar value. Where two headings read alike, the source gives them in different places. Some results are limits rather than exact numbers.

Holding throughout (format): cell-based
The subject of data set [1] is recombinant NL4-3 virus (nef section replaced with Renilla luciferase gene) in MT-2 cells. The data set can be described thus: HIV cell culture assay (antiviral activity, luciferase readout). An outline of the steps: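 MT-2 cells were infected for 4-5 days with 293T-derived NL4-3 Renilla-luciferase reporter virus in the presence of serial compound dilutions. Luciferase was read with EnduRen live-cell substrate. EC50 was fitted with the median effect equation.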

The test system of data set [2] is uninfected MT2 cells. The data set can be described thus: Compound cytotoxicity, XTT-based colorimetric assay. The following applies: day 4, XTT-based colorimetric assay. An outline of the steps:
(§1)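 Run under the antiviral-assay protocol but without virus. Viability was read on day 4 and CC50 values were derived from the readout.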

Experiment in data set [3]: as above
The following applies: human; uninfected MT2 cells, day 4, XTT-based colorimetric assay. An outline of the steps:
as §1

For the compound `Cn1nc(NS(C)(=O)=O)c2c(Cl)ccc(-n3c([C@H](Cc4cc(F)cc(F)c4)NC(=O)Cn4nc(C(F)F)c5c4C(F)(F)[C@@H]4C[C@H]54)nc(-c4ccc(F)cc4F)cc3=O)c21` [Example 3, N-((S)-1-((1P)-1-(4-chloro-1-methyl-3-(methylsulfonamido)-1H-indazol-7-yl)-4-(2,4-difluorophenyl)-6-oxo-1,6-dihydropyrimidin-2-yl)-2-(3,5-difluorophenyl)ethyl)-2-((3bS,4aR)-3-(difluoromethyl)-5,5-difluoro-3b,4,4a,5-tetrahydro-1H-cyclopropa[3,4]cyclopenta[1,2-c]pyrazol-1-yl)acetamide], in data set [1] (MT-2 cells infected for 4-5 days with recombinant NL4-3 Renilla luciferase virus, luciferase activity, read-out: EC50), the pEC50 was 8.77. In data set [2], the CC50 is more than 100 nM.

With `COc1ccnc(-c2cc(=O)n(-c3ccc(Cl)c4c(NS(=O)(=O)C5CC5)nn(CC(F)F)c34)c([C@H](Cc3cc(F)cc(F)c3)NC(=O)Cn3nc(C(F)F)c4c3C(F)(F)[C@@H]3C[C@H]43)n2)n1` (atropisomer, axis not shown; (aR)) [Example 33, N-((S)-1-((1′P)-1′-(4-chloro-3-(cyclopropanesulfonamido)-1-(2,2-difluoroethyl)-1H-indazol-7-yl)-4-methoxy-6′-oxo-1′,6′-dihydro-[2,4′-bipyrimidin]-2′-yl)-2-(3,5-difluorophenyl)ethyl)-2-((3bS,4aR)-3-(difluoromethyl)-5,5-difluoro-3b,4,4a,5-tetrahydro-1H-cyclopropa[3,4]cyclopenta[1,2-c]pyrazol-1-yl)acetamide], in data set [1] (Renilla, NL43), the pEC50 is 9.89. The compound also had a CC50 at 4 days in data set [3] of more than 100 nM.

For the compound `O=C(Cn1nc(C(F)F)c2c1C(F)(F)[C@@H]1C[C@H]21)N[C@@H](Cc1cc(F)cc(F)c1)c1nc(-c2ccc(C(F)(F)F)nc2)cc(=O)n1-c1ccc(Cl)c2c(NS(=O)(=O)C3CC3)nn(CC(F)F)c12` (atropisomer, axis not shown; (P)) [Example 38, N-((S)-1-((1P)-1-(4-chloro-3-(cyclopropanesulfonamido)-1-(2,2-difluoroethyl)-1H-indazol-7-yl)-6-oxo-4-(6-(trifluoromethyl)pyridin-3-yl)-1,6-dihydropyrimidin-2-yl)-2-(3,5-difluorophenyl)ethyl)-2-((3bS,4aR)-3-(difluoromethyl)-5,5-difluoro-3b,4,4a,5-tetrahydro-1H-cyclopropa[3,4]cyclopenta[1,2-c]pyrazol-1-yl)acetamide], the pEC50 in data set [1] (Renilla, NL43) is 9.41. Also, in data set [3], the cytotoxic concentration (CC50) at 4 days is more than 100 nM.

As to `Cn1nc(NS(C)(=O)=O)c2c(Cl)ccc(-n3c([C@H](Cc4cc(F)cc(F)c4)NC(=O)Cn4nc(C(F)F)c5c4C(F)(F)[C@@H]4C[C@H]54)nc(-c4cnc(C(C)(C)O)s4)cc3=O)c21` (atropisomer, axis not shown; (P)) [Example 25, N-((S)-1-((1P)-1-(4-chloro-1-methyl-3-(methylsulfonamido)-1H-indazol-7-yl)-4-(2-(2-hydroxypropan-2-yl)thiazol-5-yl)-6-oxo-1,6-dihydropyrimidin-2-yl)-2-(3,5-difluorophenyl)ethyl)-2-((3bS,4aR)-3-(difluoromethyl)-5,5-difluoro-3b,4,4a,5-tetrahydro-1H-cyclopropa[3,4]cyclopenta[1,2-c]pyrazol-1-yl)acetamide], in data set [1] (Renilla, NL43), the pEC50 is 8.82. In data set [3], this compound yielded a CC50 at 4 days of more than 100 nM.

`CCOc1ccc(-c2cc(=O)n(-c3ccc(Cl)c4c(NS(=O)(=O)C5CC5)nn(CC(F)F)c34)c([C@H](Cc3cc(F)cc(F)c3)NC(=O)Cn3nc(C(F)F)c4c3C(F)(F)[C@@H]3C[C@H]43)n2)cn1` (atropisomer, axis not shown; (P)) [Example 37, N-((S)-1-((1P)-1-(4-chloro-3-(cyclopropanesulfonamido)-1-(2,2-difluoroethyl)-1H-indazol-7-yl)-4-(6-ethoxypyridin-3-yl)-6-oxo-1,6-dihydropyrimidin-2-yl)-2-(3,5-difluorophenyl)ethyl)-2-((3bS,4aR)-3-(difluoromethyl)-5,5-difluoro-3b,4,4a,5-tetrahydro-1H-cyclopropa[3,4]cyclopenta[1,2-c]pyrazol-1-yl)acetamide]: the pEC50 in data set [1] (Renilla, NL43) was 8.43. Further, in data set [3], the CC50 at 4 days is more than 100 nM.

As to `O=C(Cn1nc(C(F)F)c2c1C(F)(F)[C@@H]1C[C@H]21)N[C@@H](Cc1cc(F)cc(F)c1)c1nc(-c2cccc(F)n2)cc(=O)n1-c1ccc(Cl)c2c(NS(=O)(=O)C3CC3)nn(CC(F)F)c12` (atropisomer, axis not shown; (P)) [Example 28, N-((S)-1-((1P)-1-(4-chloro-3-(cyclopropanesulfonamido)-1-(2,2-difluoroethyl)-1H-indazol-7-yl)-4-(6-fluoropyridin-2-yl)-6-oxo-1,6-dihydropyrimidin-2-yl)-2-(3,5-difluorophenyl)ethyl)-2-((3bS,4aR)-3-(difluoromethyl)-5,5-difluoro-3b,4,4a,5-tetrahydro-1H-cyclopropa[3,4]cyclopenta[1,2-c]pyrazol-1-yl)acetamide], the pEC50 in data set [1] (Renilla, NL43) is 9.41. Further, the CC50 at 4 days in data set [3] was more than 100 nM.

As to `O=C(Cn1nc(C(F)F)c2c1C(F)(F)[C@@H]1C[C@H]21)N[C@@H](Cc1cc(F)cc(F)c1)c1nc(-c2nccc(C(F)(F)F)n2)cc(=O)n1-c1ccc(Cl)c2c(NS(=O)(=O)C3CC3)nn(CC(F)F)c12` (atropisomer, axis not shown; (aR)) [Example 46, N-((S)-1-((1′P)-1′-(4-chloro-3-(cyclopropanesulfonamido)-1-(2,2-difluoroethyl)-1H-indazol-7-yl)-6′-oxo-4-(trifluoromethyl)-1′,6′-dihydro-[2,4′-bipyrimidin]-2′-yl)-2-(3,5-difluorophenyl)ethyl)-2-((3bS,4aR)-3-(difluoromethyl)-5,5-difluoro-3b,4,4a,5-tetrahydro-1H-cyclopropa[3,4]cyclopenta[1,2-c]pyrazol-1-yl)acetamide], the pEC50 in data set [1] (Renilla, NL43) was 10.30. Also, in data set [3], the CC50 at 4 days is more than 100 nM.

Regarding `Cn1nc(NS(C)(=O)=O)c2c(Cl)ccc(-n3c([C@H](Cc4cc(F)cc(F)c4)NC(=O)Cn4nc(C(F)F)c5c4C(F)(F)[C@@H]4C[C@H]54)nc(-c4cccc(F)n4)cc3=O)c21` (atropisomer, axis not shown; (P)) [Example 23, N-((S)-1-((1P)-1-(4-chloro-1-methyl-3-(methylsulfonamido)-1H-indazol-7-yl)-4-(6-fluoropyridin-2-yl)-6-oxo-1,6-dihydropyrimidin-2-yl)-2-(3,5-difluorophenyl)ethyl)-2-((3bS,4aR)-3-(difluoromethyl)-5,5-difluoro-3b,4,4a,5-tetrahydro-1H-cyclopropa[3,4]cyclopenta[1,2-c]pyrazol-1-yl)acetamide], the pEC50 in data set [1] (Renilla, NL43) was 9.38. The CC50 at 4 days in data set [3] is more than 100 nM.

The term pEC50 denotes the negative decadic logarithm of the EC50, by convention in mol/L. Usually CC50 stands for the concentration at which the toxic effect on the cells reaches its halfway point. Read a high CC50 as lower toxicity to the cells.
